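Growth conditions: 96-well plates. Treatment: test compound, 48 hours, 5 concentrations. Analysis: linear interpolation between bracketing concentrations; unreached endpoints set to highest concentration. GI50 = concentration required for 50% inhibition of growth.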 The source made the active and inactive calls. No stated cut-off is given here; in the data, active = GI50 up to about 1.1 µM and inactive = higher. Non-standard residues stand in square brackets, D forms with d. Residues, ends and D or L forms follow the SMILES beside them. *: point of attachment. X30 = COC1=CC(=O)N(C(=O)[C@@H](O*)C(C)C)[C@H]1Cc1ccccc1; NMeL = CN[C@@H](CC(C)C)C(=O)O; Cbz = O=C(OCc1ccccc1)*
How the values were obtained:
Test in all cases: inhibition of tumour cell growth, NCI panel, 48 h
A549 = system: A549
EKVX = system: EKVX
HOP-92 = system: HOP-92
MDA-N = system: MDA-N
MOLT-4 = system: MOLT-4
Malme-3M = system: Malme-3M
NCI-H226 = system: NCI-H226
NCI-H23 = system: NCI-H23
NCI-H522 = system: NCI-H522
OVCAR-3 = system: OVCAR-3
OVCAR-4 = system: OVCAR-4
OVCAR-5 = system: OVCAR-5
OVCAR-8 = system: OVCAR-8
PC-3 = system: PC-3
SF-539 = system: SF-539
SNB-19 = system: SNB-19
T47D = system: T47D
UACC-257 = system: UACC-257
UO-31 = system: UO-31
SF-268 = system: SF-268

SMILES | GI50 (A549) | GI50 (EKVX) | GI50 (HOP-92) | GI50 (MDA-N) | GI50 (MOLT-4) | GI50 (Malme-3M) | GI50 (NCI-H226) | GI50 (NCI-H23) | GI50 (NCI-H522) | GI50 (OVCAR-3) | GI50 (OVCAR-4) | GI50 (OVCAR-5) | GI50 (OVCAR-8) | GI50 (PC-3) | GI50 (SF-539) | GI50 (SNB-19) | GI50 (T47D) | GI50 (UACC-257) | GI50 (UO-31) | GI50 (SF-268)
C=C1c2nc3ccccc3n2C=C(c2ccc(OC)cc2)N1c1ccc(OCCN2CCOCC2)cc1 | 28.4 µM (inactive) | > 100 µM (inactive) | > 40.9 µM (inactive) | > 75.2 µM (inactive) | 3.75 µM (inactive) | 6.52 µM (inactive) | > 100 µM (inactive) | > 25.2 µM (inactive) | 1.43 µM (inactive) | > 100 µM (inactive) | 11.1 µM (inactive) | > 100 µM (inactive) | 6.03 µM (inactive) | 9.51 µM (inactive) | > 100 µM (inactive) | > 100 µM (inactive) | > 100 µM (inactive) | 7.13 µM (inactive) | 24.7 µM (inactive) | –
C1CCNCC1.Oc1ncnc2[nH]cc(CN3CCCCC3)c12 | > 100 µM (inactive) | > 100 µM (inactive) | 77.3 µM (inactive) | 30.4 µM (inactive) | 15.2 µM (inactive) | 64.9 µM (inactive) | > 100 µM (inactive) | > 100 µM (inactive) | 86.3 µM (inactive) | > 100 µM (inactive) | 62.4 µM (inactive) | > 100 µM (inactive) | > 100 µM (inactive) | > 100 µM (inactive) | 71.4 µM (inactive) | > 100 µM (inactive) | 57.9 µM (inactive) | 21.5 µM (inactive) | 85.3 µM (inactive) | 87.9 µM (inactive)
O=C1C2CCN(CC2)C1(CO)CO | 78.3 µM (inactive) | 49.7 µM (inactive) | 22 µM (inactive) | 39.1 µM (inactive) | 7.01 µM (inactive) | 18.2 µM (inactive) | 28.1 µM (inactive) | 25.2 µM (inactive) | 13.1 µM (inactive) | 15.9 µM (inactive) | 19.4 µM (inactive) | 26 µM (inactive) | 28.1 µM (inactive) | > 79.1 µM (inactive) | 40.9 µM (inactive) | > 100 µM (inactive) | 19.5 µM (inactive) | 18.6 µM (inactive) | 16.1 µM (inactive) | > 100 µM (inactive)
Cc1sc2ccccc2[n+]1CCC(=O)O | > 100 µM (inactive) | > 100 µM (inactive) | > 100 µM (inactive) | > 100 µM (inactive) | – | > 100 µM (inactive) | > 100 µM (inactive) | > 100 µM (inactive) | > 100 µM (inactive) | > 100 µM (inactive) | > 100 µM (inactive) | > 100 µM (inactive) | > 100 µM (inactive) | > 100 µM (inactive) | > 100 µM (inactive) | > 100 µM (inactive) | > 100 µM (inactive) | > 100 µM (inactive) | – | > 100 µM (inactive)
Cc1cc(S(=O)(=O)Nc2nc3cccnc3[nH]2)c(S)cc1Cl | 75 µM (inactive) | > 100 µM (inactive) | > 100 µM (inactive) | > 100 µM (inactive) | > 100 µM (inactive) | > 100 µM (inactive) | 52.2 µM (inactive) | 97.5 µM (inactive) | 70.5 µM (inactive) | > 100 µM (inactive) | 79.4 µM (inactive) | > 100 µM (inactive) | > 100 µM (inactive) | 92.3 µM (inactive) | > 100 µM (inactive) | 77.8 µM (inactive) | 46.8 µM (inactive) | > 100 µM (inactive) | – | 79.1 µM (inactive)
COc1cccc(C2c3cc4c(cc3OC(NNC(N)=O)C2C)OCO4)c1O (configuration not stated) | 1.92 µM (inactive) | 8.26 µM (inactive) | 0.269 µM (active) | 0.213 µM (active) | 1.42 µM (inactive) | 0.745 µM (active) | 2 µM (inactive) | 3.17 µM (inactive) | 0.871 µM (active) | 0.783 µM (active) | 38.8 µM (inactive) | 6.12 µM (inactive) | 2.46 µM (inactive) | 1.15 µM (inactive) | 0.766 µM (active) | 9.14 µM (inactive) | 61 µM (inactive) | 3.42 µM (inactive) | 8.39 µM (inactive) | 3.37 µM (inactive)
CCOP(=O)(OCC)C(Cc1cn(S(=O)(=O)c2ccc(C)cc2)cn1)C(=O)O (configuration not stated) | > 100 µM (inactive) | > 100 µM (inactive) | > 100 µM (inactive) | > 100 µM (inactive) | > 100 µM (inactive) | > 100 µM (inactive) | > 100 µM (inactive) | > 100 µM (inactive) | > 100 µM (inactive) | > 100 µM (inactive) | > 100 µM (inactive) | > 100 µM (inactive) | > 100 µM (inactive) | > 100 µM (inactive) | > 100 µM (inactive) | > 100 µM (inactive) | > 100 µM (inactive) | – | > 100 µM (inactive) | > 100 µM (inactive)
CCOc1cc(C2CC(c3ccc(NS(=O)(=O)c4cc([N+](=O)[O-])ccc4C)cc3)=NN2)ccc1O (configuration not stated) | 29 µM (inactive) | 21.4 µM (inactive) | 45 µM (inactive) | 33.2 µM (inactive) | 17.5 µM (inactive) | 25 µM (inactive) | 43 µM (inactive) | 28 µM (inactive) | 26.9 µM (inactive) | 15.3 µM (inactive) | 22.8 µM (inactive) | 32.1 µM (inactive) | 44.5 µM (inactive) | 31 µM (inactive) | 45.7 µM (inactive) | 30.3 µM (inactive) | 27.9 µM (inactive) | – | 27.8 µM (inactive) | 45.5 µM (inactive)
C/C(CC(O)(C(F)(F)F)C(F)(F)F)=N\NC(N)=O | > 10 µM (inactive) | > 10 µM (inactive) | > 10 µM (inactive) | > 10 µM (inactive) | > 10 µM (inactive) | > 10 µM (inactive) | > 10 µM (inactive) | > 10 µM (inactive) | > 10 µM (inactive) | > 10 µM (inactive) | > 10 µM (inactive) | – | > 10 µM (inactive) | > 10 µM (inactive) | > 10 µM (inactive) | > 10 µM (inactive) | > 10 µM (inactive) | > 10 µM (inactive) | > 10 µM (inactive) | > 10 µM (inactive)
COC1=CC(=O)N(C(=O)[C@@H](OC(=O)[C@@H]2CCCN2C(=O)[C@@H]2CCCN2C(=O)[C@H](CC(C)C)N(C)C(=O)[C@@H](NC(=O)[C@@H](NC(=O)OCc2ccccc2)C(C)C)C(C)C)C(C)C)[C@H]1Cc1ccccc1 (Cbz-VV[NMeL]PP-X30) | 76.7 µM (inactive) | > 100 µM (inactive) | 20.5 µM (inactive) | > 100 µM (inactive) | – | > 100 µM (inactive) | > 100 µM (inactive) | > 100 µM (inactive) | > 100 µM (inactive) | 47.1 µM (inactive) | > 100 µM (inactive) | > 100 µM (inactive) | > 100 µM (inactive) | 11.2 µM (inactive) | 15 µM (inactive) | 28.6 µM (inactive) | 68.2 µM (inactive) | 76 µM (inactive) | > 100 µM (inactive) | > 100 µM (inactive)

Reference: ChEMBL document CHEMBL1201862, “PubChem BioAssay data set” (2004)
